From US10286022B2, “Medicinal composition of extract of seed of emblica officinalis and method of preparing the same” (priority 2013, dated 2019)

How the values were obtained:
Type in all cases: in vivo, rat
[1] = test system: Triton WR 1339 induced dyslipidemia in Albino rats (Sprague Dawley strain); assay: Hypolipidemic activity compared with other amla extracts, Triton WR 1339 model (Example 25)
Protocol: Forty eight male Albino rats (Sprague Dawley strain) weighing approximate 250-300 gm were selected for the study. The animals were kept in the animal house maintained at temp 24±2° C., 65% relative humidity and 12 hr light/dark cycle. The rats were acclimatized for two weeks and during this period they had access to standard pellet diet and water ad libitum. After two weeks of acclimatization, all the rats were fasted overnight before injecting Triton WR 1339 (Tyloxapol) and administration of test extracts/standard. The animals were divided into twelve groups. Following treatment was given to overnight fasted rats: • Group I: Normal control (vehicle only). • Group II: Triton WR 1339 (300 mg/kg, intraperitoneal). • Group III: Triton WR 1339 (300 mg/kg, intraperitoneal) followed by ethyl acetate of methanol extract of amla seed prepared as per example 1 (2.5 mg/kg, per oral). • Group IV: Triton WR 1339 (300 mg/kg, intraperitoneal) followed by water part of methanol extract of amla seed prepared as per example 1 (2.5 mg/kg, per oral). • Group V: Triton WR 1339 (300 mg/kg, intraperitoneal) followed by ethyl acetate extract of amla seed prepared as per example 2 (2.5 mg/kg, per oral). • Group VI: Triton WR 1339 (300 mg/kg, intraperitoneal) followed by powder of dried amla seed prepared as per example 7 (2.5 mg/kg, per oral). • Group VII: Triton WR 1339 (300 mg/kg, intraperitoneal) followed by water extract of dried amla seed powder prepared as per example 8 (2.5 mg/kg, per oral). • Group VIII: Triton WR 1339 (300 mg/kg, intraperitoneal) followed by methanol extract of dried amla seed powder prepared as per example 9 (2.5 mg/kg, per oral). • Group IX: Triton WR 1339 (300 mg/kg, intraperitoneal) followed by powder of dried amla fruit prepared as per example 10 (2.5 mg/kg, per oral). • Group X: Triton WR 1339 (300 mg/kg, intraperitoneal) followed by water extract of dried Amla fruit powder prepared as per example 11 (2.5 mg/kg, per oral). • Group XI: Triton WR 1339 (300 mg/kg, intraperitoneal) followed by methanol extract of dried amla fruit powder prepared as per example 12 (2.5 mg/kg, per oral). • Group XII: Triton WR 1339 (300 mg/kg, intraperitoneal) followed by atorvastatin (2.5 mg/kg, per oral).
(§1) The animals were deprived of food for next 24 hours but had free access to water ad libitum. After 24 hour of drug treatment 2 ml blood samples were collected from the retro orbital plexus. The blood was allowed to clot and then centrifuged at 3000 rpm for 10 min and the serum was carefully drawn and collected into separate tubes. The serum was analyzed for total cholesterol, triglycerides, high density lipoproteins (HDL), low density lipoproteins (LDL) and very low density lipoproteins (VLDL) levels using auto-analyzer.

[2] = test system: Triton WR 1339 induced dyslipidemia in Albino rats (Sprague Dawley strain); assay: Screening of hypolipidemic activity, Triton WR 1339 induced dyslipidemia model (Example 18)
Protocol: (§2) Twenty four male Albino rats (Sprague Dawley strain) weighing approximate 250-300 gm were selected for the study. The animals were kept in the animal house maintained at temp 24±2° C., 65% relative humidity and 12 hr light/dark cycle. The rats were acclimatized for two weeks and during this period they had access to standard pellet diet and water ad libitum. After two weeks of acclimatization, all the rats were fasted overnight before injecting Triton WR 1339 (Tyloxapol) and administration of test extracts/standard. The animals were divided into four groups Following treatment was given to overnight fasted rats: • Group I: Normal control (vehicle only). • Group II: Triton WR 1339 (300 mg/kg, intraperitoneal). • Group III: Triton WR 1339 (300 mg/kg, intraperitoneal) followed by amla seed extract prepare as per example 1 (10 mg/kg, per oral). • Group IV: Triton WR 1339 (300 mg/kg, intraperitoneal) followed by Atorvastatin (10 mg/kg, per oral).
as §1

[3] = test system: Triton WR 1339 induced dyslipidemia in Albino rats (Sprague Dawley strain); assay: Single dosage study compared with other amla extracts, Triton WR 1339 model (Example 21)
Protocol: as §2, with “Forty eight male” for “Twenty four male”, “into eight groups.” for “into four groups”, “extract prepared” for “extract prepare”, “1 (2.5” for “1 (10”, “by amla extract prepared as per example 3 (2.5 mg/kg, per oral). • Group V: Triton WR 1339 (300 mg/kg, intraperitoneal) followed by amla extract prepared as per example 4 (2.5 mg/kg, per oral). • Group VI: Triton WR 1339 (300 mg/kg, intraperitoneal) followed by amla extract prepared as per example 5 (2.5 mg/kg, per oral). • Group VII: Triton WR 1339 (300 mg/kg, intraperitoneal) followed by amla extract prepared as per example 6 (2.5 mg/kg, per oral). • Group VIII: Triton WR 1339 (300 mg/kg, intraperitoneal) followed by atorvastatin” for “by Atorvastatin”
as §1

[4] = 24 h after Triton i.p. + 2.5 mg/kg p.o.
[5] = 24 h after Triton i.p. + 10 mg/kg p.o.

Compound: CC(C)c1c(C(=O)Nc2ccccc2)c(-c2ccccc2)c(-c2ccc(F)cc2)n1CC[C@@H](O)C[C@@H](O)CC(=O)O [Atorvastatin]
- effect on cholesterol and triglyceride levels ([1]; 2.5 mg/kg p.o.): effective in lowering the cholesterol as well as triglyceride levels
- HDL After [1, 4]: 39.56 mg/dL
- LDL After [1, 4]: 44.53 mg/dL
- TC After [1, 4]: 123.14 mg/dL
- TG After [1, 4]: 195.25 mg/dL
- VLDL After [1, 4]: 39.05 mg/dL
- HDL Before ([1]; baseline, 2.5 mg/kg p.o. group): 36.54 mg/dL
- LDL Before ([1]; baseline, 2.5 mg/kg p.o. group): 57.99 mg/dL
- TC Before ([1]; baseline, 2.5 mg/kg p.o. group): 104.44 mg/dL
- TG Before ([1]; baseline, 2.5 mg/kg p.o. group): 49.54 mg/dL
- VLDL Before ([1]; baseline, 2.5 mg/kg p.o. group): 9.91 mg/dL
- effect on cholesterol and triglyceride level ([2]; 10 mg/kg p.o.): effective in lowering the cholesterol as well as triglyceride level
- HDL After [2, 5]: 32.37 mg/dL
- LDL After [2, 5]: 77.61 mg/dL
- TC After [2, 5]: 131.9 mg/dL
- TG After [2, 5]: 109.67 mg/dL
- VLDL After [2, 5]: 21.93 mg/dL
- HDL Before ([2]; baseline, 10 mg/kg p.o. group): 29.13 mg/dL
- LDL Before ([2]; baseline, 10 mg/kg p.o. group): 62.43 mg/dL
- TC Before ([2]; baseline, 10 mg/kg p.o. group): 100.4 mg/dL
- TG Before ([2]; baseline, 10 mg/kg p.o. group): 44.26 mg/dL
- VLDL Before ([2]; baseline, 10 mg/kg p.o. group): 8.85 mg/dL
- HDL After [3, 5]: 36.66 mg/dL
- LDL After [3, 5]: 43.67 mg/dL
- TC After [3, 5]: 122.54 mg/dL
- TG After [3, 5]: 211.06 mg/dL
- VLDL After [3, 5]: 42.21 mg/dL
- HDL Before ([3]; baseline, 10 mg/kg p.o. group): 39.51 mg/dL
- LDL Before ([3]; baseline, 10 mg/kg p.o. group): 51.00 mg/dL
- TC Before ([3]; baseline, 10 mg/kg p.o. group): 99.83 mg/dL
- TG Before ([3]; baseline, 10 mg/kg p.o. group): 46.59 mg/dL
- VLDL Before ([3]; baseline, 10 mg/kg p.o. group): 9.31 mg/dL
- effect on cholesterol and triglyceride level ([3]; extracts 2.5 mg/kg, atorvastatin 10 mg/kg p.o.): less effective when compared with the amla seed extract
